In US20260354380A1, “PYRAZOLO PESTICIDAL COMPOUNDS” (BASF SE, priority 2022, published 2026):

Key:
Type in all cases: in vivo
Dichromothrips corbetti = test: Action on Orchid Thrips (Dichromothrips corbetti); details: 300 ppm; adults; 72 hours after treatment
Method: Example B2: Action on Orchid Thrips (Dichromothrips corbetti)
Dichromothrips corbetti adults used for bioassay were obtained from a colony maintained continuously under laboratory conditions. For testing purposes, the test compound is diluted in a 1:1 mixture of acetone: water (vol: vol), plus Kinetic® HV at a rate of 0.01% v/v.
Thrips potency of each compound was evaluated by using a floral-immersion technique. All petals of individual, intact orchid flowers were dipped into treatment solution and allowed to dryin Petri dishes. Treated petals were placed into individual re-sealable plastic along with about 20 adult thrips. All test arenas were held under continuous light and a temperature of about 28 °C for duration of the assay. After 3 days, the numbers of live thrips were counted on each petal. The percent mortality was recorded 72 hours after treatment.

Heliothis virescens = test: Action on Tobacco Budworm (Heliothis virescens); details: 800 ppm; egg and larval mortality; 5 days
In short: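 Compounds in 25% DMSO/75% water were sprayed at several concentrations onto insect diet in microtiter wells holding 15-25 eggs, two replications. After 5 days at about 28±1 °C and 80±5% RH, egg and larval mortality was scored visually.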

Aedes aegypti = test: whole plant or invertebrate; details: 800 ppm; larvae; 2 days
In short: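 Freshly hatched larvae (5-15 per well) were held in tap water, and compounds formulated in 25% DMSO/water were sprayed onto diet at several concentrations in duplicate. Larval mortality was scored visually after 2 days at 28±1 °C, 80±5% RH.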

Anthonomus grandis = test: Action on Boll Weevil (Anthonomus grandis); details: 800 ppm; egg and larval mortality; 5 days
In short: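 Compounds in 75:25 water:DMSO sprayed at several concentrations onto insect diet in microtiter wells holding 5-10 eggs, two replicates. Plates kept 5 days at about 25±1 °C and 75±5% RH; egg and larval mortality scored visually.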

Spodoptera eridania = test: Action on Southern Armyworm (Spodoptera eridania), 2nd Instar Larvae; details: 300 ppm; 2nd instar larvae; 4 days after treatment
In short: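 Compounds in 50% acetone/water with 0.01% nonionic surfactant sprayed electrostatically onto Lima bean plants at 1st true leaf stage. After drying, 10–11 2nd-instar larvae bagged with each pot, kept about 25 °C, 20–40% RH. Mortality and reduced feeding scored at 4 days vs untreated plants.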

Bemisia argentifolii = test: Action on Silverleaf Whitefly (Bemisia argentifolii) (Adults); details: 300 ppm, 3 days after treatment
Method: Example B4: Action on Silverleaf Whitefly (Bemisia argentifolii) (Adults)
The active compounds were formulated by a Tecan liquid handler in 100% cyclohexanone as a 10,000 ppm solution supplied in tubes. The 10,000 ppm solution was serially diluted in 100% cyclohexanone to make interim solutions. These served as stock solutions for which final dilutions were made by the Tecan in 50% acetone: 50% water (v/v) into 5 or 10 ml glass vials. A nonionic surfactant (Kinetic®) was included in the solution at a volume of 0.01% (v/v). The vials were then inserted into an automated electrostatic sprayer equipped with an atomizing nozzle for application to plants/insects.
Cotton plants at the cotyledon stage (one plant per pot) were sprayed by an automated electrostatic plant sprayer equipped with an atomizing spray nozzle. The plants were dried in the sprayer fume hood and then removed from the sprayer. Each pot was placed into a plastic cup and about 10 to 12 whitefly adults (approximately 3-5 days old) were introduced. The insects were collected using an aspirator and a nontoxic Tygon® tubing connected to a barrier pipette tip. The tip, containing the collected insects, was then gently inserted into the soil containing the treated plant, allowing insects to crawl out of the tip to reach the foliage for feeding. […] Mortality was assessed 3 days after treatment, compared to untreated control plants.

Plutella xylostella [1] = test: Action on Diamond Back Moth (Plutella xylostella), cabbage leaf dip, 3rd instar larvae; details: 300 ppm; 3rd instar larvae; 72 hours after treatment
In short: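 Cabbage leaves dipped in compound solution (1:1 water:acetone, 0.01% v/v surfactant), air-dried, then infested with ten 3rd-instar larvae in petri dishes on moist filter paper. Mortality scored at 72 h after treatment; feeding damage rated on a 0–100% scale.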

Plutella xylostella [2] = test: Action on Diamond Back Moth (Plutella xylostella), microtiter plates, insect diet, eggs; details: 800 ppm; egg and larval mortality; 5 days
In short: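 Diet in 96-well plates with 15–25 P. xylostella eggs, sprayed with compound formulated in 75% water/25% DMSO at several concentrations, two replicates; mixtures combined in equal volumes. Incubated 5 days at 28±1 °C, 80±5% RH, then egg and larval mortality scored visually.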

| Structure (SMILES) | mortality in comparison with untreated controls (Dichromothrips corbetti) | mortality in comparison with untreated controls (Heliothis virescens) | mortality in comparison with untreated controls (Aedes aegypti) | mortality in comparison with untreated controls (Anthonomus grandis) | mortality in comparison with untreated controls (Spodoptera eridania) | mortality in comparison with untreated controls (Bemisia argentifolii) | mortality in comparison with untreated controls (Plutella xylostella [1]) | mortality in comparison with untreated controls (Plutella xylostella [2]) |
| --- | --- | --- | --- | --- | --- | --- | --- | --- |
| Cc1ccc(C(C)C)c(N2C(=O)CS/C2=N\C(=O)Nc2ccc(-n3cc(NC(=O)c4ccc(OC(F)(F)F)cc4)c(C)n3)cc2F)c1 [Example C-6] | at least 75% | at least 75% | at least 50% | at least 75% | at least 75% | at least 75% | at least 75% |  |
| Cc1ccc(C(C)C)c(N2C(=O)CSC2=NC(=O)Nc2ccc(-n3nc(C)c(N(CC4CC4)C(=O)c4ccc(OC(F)(F)F)cc4)c3C)cc2Cl)c1 [Example C-46] | at least 75% | at least 75% | at least 50% | at least 75% | at least 75% |  |  | at least 75% |
| Cc1ccc(C(C)C)c(N2C(=O)CS/C2=N\C(=O)Nc2cc(F)c(-n3nc(C)c(NC(=O)c4ccc(OC(F)(F)F)cc4)c3C)cc2Cl)c1 [Example C-104] | at least 75% | at least 75% | at least 50% | at least 75% | at least 75% |  |  | at least 75% |
| Cc1ccc(C(C)C)c(N2C(=O)CSC2=NC(=O)Nc2ccc(-n3nc(C)c(NC(=O)c4ccc(OC(F)(F)F)cc4)c3C)c(Cl)c2Cl)c1 [Example C-123] | at least 75% | at least 75% | at least 50% | at least 75% | at least 75% |  |  | at least 75% |
| Cc1ccc(C(C)C)c(NC(=S)NC(=O)Nc2ccc(-n3nc(C)c(NC(=O)c4ccc(OC(F)(F)F)cc4)c3C)cc2Cl)c1 [Example C-125] | at least 75% | at least 75% | at least 50% | at least 75% | at least 75% |  |  | at least 75% |
